Assay results as given in BindingDB's records for doi:10.7270/Q2Z31X1B (Nmmlsc, 2007).
pKi: −log10 of the molar value.

Target: T1, fMet-Leu-Phe receptor (Homo sapiens, UniProt P21462)
T1 sequence (P21462 whole entry): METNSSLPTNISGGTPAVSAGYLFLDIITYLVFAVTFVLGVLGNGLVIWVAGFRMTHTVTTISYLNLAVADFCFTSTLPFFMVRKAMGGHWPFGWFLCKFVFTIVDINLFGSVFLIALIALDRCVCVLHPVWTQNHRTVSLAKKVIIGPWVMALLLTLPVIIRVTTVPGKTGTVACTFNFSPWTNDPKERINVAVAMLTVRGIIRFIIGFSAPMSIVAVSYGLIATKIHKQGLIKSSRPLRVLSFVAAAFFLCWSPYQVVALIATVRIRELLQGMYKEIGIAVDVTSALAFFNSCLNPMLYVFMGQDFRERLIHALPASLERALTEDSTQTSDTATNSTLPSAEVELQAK
Experiment: human FPR1 ligand displacement potency – cell-based, flow cytometry, Ki from IC50, dose response (AID 724)

Compound | pKi
CC(=O)C1C(=O)C(=O)N(CCc2c(C)[nH]c3ccccc23)C1c1cccc(F)c1 (centres undefined) | 4.95
COc1ccc(C(=O)C2C(=O)C(=O)N(CCc3c[nH]c4ccccc34)C2c2ccc(C(C)C)cc2)cc1 (centres undefined) | < 4.35
COc1ccc(C2C(C(=O)c3cccs3)C(=O)C(=O)N2CCCn2ccnc2)cc1 (centres undefined) [1-(3-imidazol-1-ylpropyl)-2-(4-methoxyphenyl)-4-oxidanyl-3-thiophen-2-ylcarbonyl-2H-pyrrol-5-one] | 5.33
COc1cc(C2C(C(C)=O)C(=O)C(=O)N2c2ccc(Br)cc2)ccc1O (centres undefined) [1-(4-bromophenyl)-3-ethanoyl-2-(3-methoxy-4-oxidanyl-phenyl)-4-oxidanyl-2H-pyrrol-5-one] | < 4.35
COc1ccc(C2C(C(=O)c3cccs3)C(=O)C(=O)N2CCN2CCOCC2)c(OC)c1 (centres undefined) [2-(2,4-dimethoxyphenyl)-1-(2-morpholin-4-ylethyl)-4-oxidanyl-3-thiophen-2-ylcarbonyl-2H-pyrrol-5-one] | 5.54
COc1ccc(C2C(C(=O)c3ccco3)C(=O)C(=O)N2CCCN2CCOCC2)cc1OC (centres undefined) [2-(3,4-dimethoxyphenyl)-3-(furan-2-carbonyl)-4-hydroxy-1-(3-morpholin-4-ylpropyl)-2H-pyrrol-5-one] | < 4.35
O=C1C(=O)N(CCc2ccccc2)C(c2ccc(Cl)cc2)C1C(=O)c1cccs1 (centres undefined) [2-(4-chlorophenyl)-4-hydroxy-1-(2-phenylethyl)-3-(thiophene-2-carbonyl)-2H-pyrrol-5-one] | 5.16
COc1cc(C2C(C(=O)c3cc4ccccc4o3)C(=O)C(=O)N2CCN(C)C)ccc1O (centres undefined) [3-(1-benzofuran-2-carbonyl)-1-[2-(dimethylamino)ethyl]-4-hydroxy-2-(4-hydroxy-3-methoxyphenyl)-2H-pyrrol-5-one] | < 4.35
COc1ccc(C2C(C(=O)c3cc4ccccc4o3)C(=O)C(=O)N2CCN(C)C)cc1OC (centres undefined) [3-(1-benzofuran-2-carbonyl)-2-(3,4-dimethoxyphenyl)-1-[2-(dimethylamino)ethyl]-4-hydroxy-2H-pyrrol-5-one] | < 4.35
O=C1C(=O)N(CCCn2ccnc2)C(c2cccnc2)C1C(=O)c1cc2ccccc2o1 (centres undefined) [3-(1-benzofuran-2-carbonyl)-4-hydroxy-1-(3-imidazol-1-ylpropyl)-2-pyridin-3-yl-2H-pyrrol-5-one] | < 4.35
O=C1C(=O)N(CCCN2CCOCC2)C(c2cccnc2)C1C(=O)c1cc2ccccc2o1 (centres undefined) [3-(1-benzofuran-2-carbonyl)-4-hydroxy-1-(3-morpholin-4-ylpropyl)-2-pyridin-3-yl-2H-pyrrol-5-one] | < 4.35
O=C1C(=O)N(CCCn2ccnc2)C(c2cccnc2)C1C(=O)c1ccco1 (centres undefined) [3-(furan-2-carbonyl)-4-hydroxy-1-(3-imidazol-1-ylpropyl)-2-pyridin-3-yl-2H-pyrrol-5-one] | < 4.35
COc1ccc(OC)c(C2C(C(=O)c3ccc(C)cc3)C(=O)C(=O)N2CCC(=O)O)c1 (centres undefined) [3-[(3E)-2-(2,5-dimethoxyphenyl)-3-[(4-methylphenyl)-oxidanyl-methylidene]-4,5-bis(oxidanylidene)pyrrolidin-1-yl]propanoic acid] | < 4.35
O=C(O)CCCN1C(=O)C(=O)C(C(=O)c2ccccc2)C1/C=C/c1ccccc1 (centres undefined) [4-[(4E)-2,3-bis(oxidanylidene)-4-[oxidanyl(phenyl)methylidene]-5-[(E)-2-phenylethenyl]pyrrolidin-1-yl]butanoic acid] | < 4.35
COc1ccc(C2C(C(=O)c3ccco3)C(=O)C(=O)N2CCN2CCOCC2)c(OC)c1 (centres undefined) [5-(2,4-dimethoxyphenyl)-4-(furan-2-carbonyl)-3-hydroxy-1-(2-morpholinoethyl)-1H-pyrrol-2(5H)-one] | 5.19
COc1ccc(OC)c(C2C(C(=O)c3ccccc3)C(=O)C(=O)N2c2ccc(C)c(Cl)c2)c1 (centres undefined) [(4E)-1-(3-chloranyl-4-methyl-phenyl)-5-(2,5-dimethoxyphenyl)-4-[oxidanyl(phenyl)methylidene]pyrrolidine-2,3-dione] | 4.77
COc1ccc(C2C(C(=O)c3ccccc3)C(=O)C(=O)N2c2cccc(Cl)c2)c(OC)c1 (centres undefined) [(4E)-1-(3-chlorophenyl)-5-(2,4-dimethoxyphenyl)-4-[hydroxy(phenyl)methylene]pyrrolidine-2,3-quinone] | 4.51

Compound | pKi
COCCCN1C(=O)C(=O)C(C(=O)c2ccccc2)C1c1ccc(C(C)C)cc1 (centres undefined) [(4E)-1-(3-methoxypropyl)-4-[oxidanyl(phenyl)methylidene]-5-(4-propan-2-ylphenyl)pyrrolidine-2,3-dione] | 4.69
Cc1ccc(C(=O)C2C(=O)C(=O)N(c3nnc(C)s3)C2c2ccc(C(C)C)cc2)cc1 (centres undefined) [(4E)-4-[(4-methylphenyl)-oxidanyl-methylidene]-1-(5-methyl-1,3,4-thiadiazol-2-yl)-5-(4-propan-2-ylphenyl)pyrrolidine-2,3-dione] | < 4.35
CC(C)c1ccc(C2C(C(=O)c3ccccc3)C(=O)C(=O)N2Cc2cccnc2)cc1 (centres undefined) [(4E)-4-[hydroxy(phenyl)methylene]-5-p-cumenyl-1-(3-pyridylmethyl)pyrrolidine-2,3-quinone] | 4.48
COc1ccc(C2C(C(=O)c3ccccc3)C(=O)C(=O)N2CCCn2ccnc2)c(OC)c1 (centres undefined) [(4E)-5-(2,4-dimethoxyphenyl)-1-(3-imidazol-1-ylpropyl)-4-[oxidanyl(phenyl)methylidene]pyrrolidine-2,3-dione] | 5.47
COc1ccc(C2C(C(=O)c3ccc(C)cc3)C(=O)C(=O)N2Cc2cccnc2)c(OC)c1 (centres undefined) [(4E)-5-(2,4-dimethoxyphenyl)-4-[(4-methylphenyl)-oxidanyl-methylidene]-1-(pyridin-3-ylmethyl)pyrrolidine-2,3-dione] | 4.41
COCCN1C(=O)C(=O)C(C(=O)c2ccccc2)C1c1cc(OC)ccc1OC (centres undefined) [(4E)-5-(2,5-dimethoxyphenyl)-1-(2-methoxyethyl)-4-[oxidanyl(phenyl)methylidene]pyrrolidine-2,3-dione] | 5.74
COc1ccc(OC)c(C2C(C(=O)c3ccccc3)C(=O)C(=O)N2c2cccnc2)c1 (centres undefined) [(4E)-5-(2,5-dimethoxyphenyl)-4-[hydroxy(phenyl)methylene]-1-(3-pyridyl)pyrrolidine-2,3-quinone] | 5.22
COCCCN1C(=O)C(=O)C(C(=O)c2ccccc2)C1c1ccc(O)c(OC)c1 (centres undefined) [(4E)-5-(3-methoxy-4-oxidanyl-phenyl)-1-(3-methoxypropyl)-4-[oxidanyl(phenyl)methylidene]pyrrolidine-2,3-dione] | 4.48
O=C1C(=O)N(CN2CCOCC2)C(c2ccc(Br)cc2)C1C(=O)c1ccccc1 (centres undefined) [(4E)-5-(4-bromophenyl)-1-(morpholin-4-ylmethyl)-4-[oxidanyl(phenyl)methylidene]pyrrolidine-2,3-dione] | < 4.35
O=C1NC(c2ccc(Br)cc2)C(C(=O)c2ccc(Cl)cc2)C1=O (centres undefined) [(4E)-5-(4-bromophenyl)-4-[(4-chlorophenyl)-hydroxy-methylene]pyrrolidine-2,3-quinone] | < 4.35
Cc1ccc(C(=O)C2C(=O)C(=O)N(Cc3cccnc3)C2c2ccc(Br)cc2)cc1 (centres undefined) [(4E)-5-(4-bromophenyl)-4-[(4-methylphenyl)-oxidanyl-methylidene]-1-(pyridin-3-ylmethyl)pyrrolidine-2,3-dione] | < 4.35
Cc1ccc(N2C(=O)C(=O)C(C(=O)c3ccccc3)C2c2cccc(F)c2)cc1Br (centres undefined) [(4Z)-1-(3-bromanyl-4-methyl-phenyl)-5-(3-fluorophenyl)-4-[oxidanyl(phenyl)methylidene]pyrrolidine-2,3-dione] | < 4.35
CCCCCCN1C(=O)C(=O)C(C(=O)c2ccccc2)C1c1ccc(O)c(OC)c1 (centres undefined) [(4Z)-1-hexyl-5-(3-methoxy-4-oxidanyl-phenyl)-4-[oxidanyl(phenyl)methylidene]pyrrolidine-2,3-dione] | 5.33
COc1ccc(C(=O)C2C(=O)C(=O)NC2c2ccc(OC)cc2OC)cc1 (centres undefined) [(4Z)-5-(2,4-dimethoxyphenyl)-4-[(4-methoxyphenyl)-oxidanyl-methylidene]pyrrolidine-2,3-dione] | < 4.35
CCCCCCOc1cccc(N2C(=O)C(=O)C(C(=O)c3ccccc3)C2c2cccc(F)c2)c1 (centres undefined) [(4Z)-5-(3-fluorophenyl)-1-(3-hexoxyphenyl)-4-[hydroxy(phenyl)methylene]pyrrolidine-2,3-quinone] | < 4.35
O=C1C(=O)N(c2ccc(F)cc2)C(c2ccc(Br)cc2)C1C(=O)c1ccccc1 (centres undefined) [(4Z)-5-(4-bromophenyl)-1-(4-fluorophenyl)-4-[hydroxy(phenyl)methylene]pyrrolidine-2,3-quinone] | < 4.35
N#Cc1c(N=C(CC(=O)c2ccccc2)C(=O)O)sc2c1CCC2 [(Z)-2-[(3-cyano-5,6-dihydro-4H-cyclopenta[b]thiophen-2-yl)amino]-4-keto-4-phenyl-but-2-enoic acid] | < 4.35
